One may read the IC50 as the midpoint of a concentration-inhibition curve.

1 compound from paper PMC3532034 (The Journal of neuroscience : the official journal of the …, 2012) can be followed below.

The assay deals with LRRK2 (leucine-rich repeat kinase 2) (Homo sapiens, UniProt Q5S007). Nature of the assay: in vitro radiometric kinase assay with recombinant purified LRRK2. It is filed as biochemical.
Chain of LRRK2 (leucine-rich repeat kinase 2) (Q5S007 970-2527 limits assumed): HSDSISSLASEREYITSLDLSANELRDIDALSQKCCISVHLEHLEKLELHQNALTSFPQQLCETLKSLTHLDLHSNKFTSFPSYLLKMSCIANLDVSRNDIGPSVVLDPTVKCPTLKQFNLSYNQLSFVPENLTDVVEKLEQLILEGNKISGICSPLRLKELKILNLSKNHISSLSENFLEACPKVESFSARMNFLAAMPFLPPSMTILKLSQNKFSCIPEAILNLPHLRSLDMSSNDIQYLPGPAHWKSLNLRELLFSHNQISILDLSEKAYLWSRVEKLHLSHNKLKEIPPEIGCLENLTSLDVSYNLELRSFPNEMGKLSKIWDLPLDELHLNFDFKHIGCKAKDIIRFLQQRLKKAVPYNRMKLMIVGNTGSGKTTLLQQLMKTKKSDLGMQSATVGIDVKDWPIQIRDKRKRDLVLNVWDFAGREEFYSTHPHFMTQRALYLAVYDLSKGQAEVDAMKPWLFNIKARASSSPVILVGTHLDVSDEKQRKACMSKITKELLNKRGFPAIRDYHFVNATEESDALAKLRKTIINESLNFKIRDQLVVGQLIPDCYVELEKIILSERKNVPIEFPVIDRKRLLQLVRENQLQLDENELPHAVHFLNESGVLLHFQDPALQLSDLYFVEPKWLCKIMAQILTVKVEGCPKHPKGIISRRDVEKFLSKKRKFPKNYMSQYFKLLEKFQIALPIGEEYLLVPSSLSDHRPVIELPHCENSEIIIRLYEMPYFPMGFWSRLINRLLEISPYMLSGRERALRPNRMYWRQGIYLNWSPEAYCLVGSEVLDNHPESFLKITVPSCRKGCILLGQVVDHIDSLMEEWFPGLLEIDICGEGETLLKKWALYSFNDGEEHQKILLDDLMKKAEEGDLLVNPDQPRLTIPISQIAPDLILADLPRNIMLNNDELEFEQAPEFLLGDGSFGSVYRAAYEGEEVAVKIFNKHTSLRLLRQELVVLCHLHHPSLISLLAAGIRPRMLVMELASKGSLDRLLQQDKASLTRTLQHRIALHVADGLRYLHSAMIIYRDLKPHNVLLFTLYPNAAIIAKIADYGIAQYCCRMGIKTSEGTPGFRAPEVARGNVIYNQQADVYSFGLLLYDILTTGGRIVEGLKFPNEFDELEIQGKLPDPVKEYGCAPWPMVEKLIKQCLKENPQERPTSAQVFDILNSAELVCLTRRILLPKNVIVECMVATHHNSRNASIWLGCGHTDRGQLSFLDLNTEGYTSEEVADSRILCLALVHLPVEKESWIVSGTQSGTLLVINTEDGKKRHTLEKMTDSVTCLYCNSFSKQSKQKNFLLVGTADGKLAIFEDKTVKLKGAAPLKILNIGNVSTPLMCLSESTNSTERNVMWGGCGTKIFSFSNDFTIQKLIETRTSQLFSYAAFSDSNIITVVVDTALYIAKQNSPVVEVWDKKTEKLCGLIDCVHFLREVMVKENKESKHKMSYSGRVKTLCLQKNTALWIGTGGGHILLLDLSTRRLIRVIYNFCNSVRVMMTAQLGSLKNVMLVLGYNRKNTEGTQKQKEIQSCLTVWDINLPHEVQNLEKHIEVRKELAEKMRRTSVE

Regarding `COc1cc(C(=O)N2CCC(N3CCN(C)CC3)CC2)ccc1Nc1ncc2c(n1)N(C)c1ccccc1C(=O)N2C` [L2in1], the IC50 turned out to be 40.3 nM.
